The NIST ThermoML archive (doi:10.1016/j.jct.2006.03.009)
± gives the expanded uncertainty stated by the source.

Assay: cn = amount concentration of the nth substance listed, in mol/dm3
Details: Liquid; for mass density: 7 kPa, Pycnometric method; for speed of sound: 101 kPa

[Cl-].[K+] [potassium chloride] + O
c1 = 1.5
Details	mass density [kg/m3]	speed of sound [m/s]
303.15 K	1061.4 ± 0.4	1584 ± 3.3
308.15 K	1059.7 ± 0.5	1590.4 ± 3.3
313.15 K	1057.8 ± 0.5	1595.8 ± 3.4
318.15 K	1055.6 ± 0.5	1601.6 ± 3.4
323.15 K	1053.3 ± 0.5	1606.2 ± 3.4

O=[N+]([O-])[O-].[K+] [potassium nitrate] + O
c1 = 1
Details	mass density [kg/m3]	speed of sound [m/s]
303.15 K	1052.9 ± 0.4	1541.8 ± 3.3
308.15 K	1051.1 ± 0.4	1550.2 ± 3.3
313.15 K	1049 ± 0.5	1557.4 ± 3.3
318.15 K	1046.7 ± 0.5	1563.6 ± 3.3
323.15 K	1044.2 ± 0.5	1568.4 ± 3.3

O=S(=O)([O-])[O-].[K+].[K+] [potassium sulfate] + O
c1 = 0.5
Details	mass density [kg/m3]	speed of sound [m/s]
303.15 K	1059.3 ± 0.4	1571.2 ± 3.3
308.15 K	1057.9 ± 0.5	1578.8 ± 3.3
313.15 K	1056.1 ± 0.5	1587.6 ± 3.3
318.15 K	1054.2 ± 0.5	1592.6 ± 3.3
323.15 K	1051.9 ± 0.5	1597.6 ± 3.4
